# Test results as given in patent US9695155B2, “Herbicidal substituted pyrimidinyloxy benzene compounds” (E. I. DU PONT DE NEMOURS AND COMPANY, priority 2013, dated 2017).
# Legend:
# wild poinsettia = assay: Test E postemergence; type: in vivo, Euphorbia heterophylla; settings: Euphorbia heterophylla, post-emergence, read-out: Plant response rating, Poinsettia, Wild
# Source text: (§1) Seeds of plant species selected from corn (Zea mays), soybean (Glycine max), velvetleaf (Abutilon theophrasti), lambsquarters (Chenopodium album), wild poinsettia (Euphorbia heterophylla), palmer pigweed (Amaranthus palmeri), waterhemp (common waterhemp, Amaranthus rudis), surinam grass (Brachiaria decumbens), large (Lg) crabgrass (Digitaria sanguinalis), Brazilian crabgrass (Digitaria horizontalis), fall panicum (Panicum dichotomiflorum), giant foxtail (Setaria faberii), green foxtail (Setaria viridis), goosegrass (Eleusine indica), johnsongrass (Sorghum halepense), ragweed (common ragweed, Ambrosia elatior), barnyardgrass (Echinochloa crus-galli), sandbur (southern sandbur, Cenchrus echinatus), arrowleaf sida (Sida rhombifolia), Italian ryegrass (Lolium multiflorum), dayflower (Virginia (VA) dayflower, Commelina virginica), field bindweed (Convolvulus arvensis), morningglory (Ipomoea coccinea), nightshade (eastern black nightshade, Solanum ptycanthum), kochia (Kochia scoparia), yellow nutsedge (Cyperus esculentus), cocklebur (common cocklebur, Xanthium strumarium), smartweed (ladysthumb smartweed, and hairy beggarticks (Bidens pilosa), were planted into a silt loam soil and treated preemergence with test chemicals formulated in a non-phytotoxic solvent mixture which included a surfactant.
# (§2) At the same time, plants from these crop and weed species and also horseweed (Canada horseweed, Conyza canadensis), waterhemp_RES1, (ALS & Triazine resistant common waterhemp, Amaranthus rudis), and waterhemp_RES2, (ALS & HPPD resistant common waterhemp, Amaranthus rudis) were planted in pots containing Redi-Earth® planting medium (Scotts Company, 14111 Scottslawn Road, Marysville, Ohio 43041) comprising spaghnum peat moss, vermiculite, wetting agent and starter nutrients were treated with postemergence applications of test chemicals formulated in the same manner. Plants ranged in height from 2 to 18 cm for postemergence treatments (1- to 4-leaf stage). Treated plants and controls were maintained in a greenhouse for 14 to 21 days, after which time all species were compared to controls and visually evaluated. Plant response ratings, summarized in Table E, are based on a scale of 0 to 100 where 0 is no effect and 100 is complete control. A dash (-) response means no test result.
# dayflower = assay: Test E postemergence; type: in vivo, Commelina virginica; settings: Commelina virginica, post-emergence, read-out: Plant response rating, Dayflower, VA
# Source text: as §1, §2
# field bindweed = assay: Test E postemergence; type: in vivo, Convolvulus arvensis; settings: Convolvulus arvensis, post-emergence, read-out: Plant response rating, Field Bindweed
# Source text: as §1, §2
# sandbur = assay: Test E postemergence; type: in vivo, Cenchrus echinatus; settings: Cenchrus echinatus, post-emergence, read-out: Plant response rating, Sandbur
# Source text: as §1, §2
# [1] = system: waterhemp_RES2 (ALS & HPPD resistant common waterhemp); assay: Test E postemergence; type: in vivo, Amaranthus rudis; settings: Amaranthus tuberculatus, post-emergence, read-out: Plant response rating, Waterhemp_RES2
# Source text: as §1, §2
# waterhemp = assay: Test E postemergence; type: in vivo, Amaranthus rudis; settings: Amaranthus tuberculatus, post-emergence, read-out: Plant response rating, Waterhemp
# Source text: as §1, §2
# ducksalad = assay: Test C flooded paddy test; type: in vivo, Heteranthera limosa; settings: Flood, scale 0 to 100 (0 no effect, 100 complete control), 13 to 15 days
# Procedure, shortened: (§3)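 Flooded 3 cm over soil; compound into paddy water; depth kept constant. Greenhouse 13–15 d.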
# rice = assay: Test C flooded paddy test; type: in vivo, Oryza sativa; settings: Flood, scale 0 to 100 (0 no effect, 100 complete control), 13 to 15 days
# Procedure, shortened: as §3
# [2] = Postemergence, 31 g ai/ha, scale 0 to 100
# [3] = Postemergence, 62 g ai/ha, scale 0 to 100
# [4] = Postemergence, 125 g ai/ha, scale 0 to 100
# [5] = Postemergence, 250 g ai/ha, scale 0 to 100
# [6] = postemergence, 16 g ai/ha, scale 0 to 100, 0 no effect, 100 complete control
structure (smiles),measurement,setting,value
"Clc1cnn(-c2ccccc2Oc2ncc(Br)cn2)c1 [Compound 5, 5-bromo-2-[2-(4-chloro-1H-pyrazol-1-yl)phenoxy]pyrimidine]",pest or weed control at 31 g/ha,wild poinsettia; [2],20%
same,pest or weed control at 62 g/ha,wild poinsettia; [3],30%
same,pest or weed control at 125 g/ha,wild poinsettia; [4],35%
same,pest or weed control at 250 g/ha,wild poinsettia; [5],50%
same,pest or weed control at 16 g/ha,wild poinsettia; [6],10%
same,pest or weed control at 31 g/ha,dayflower; [2],10%
same,pest or weed control at 62 g/ha,dayflower; [3],10%
same,pest or weed control at 125 g/ha,dayflower; [4],40%
same,pest or weed control at 250 g/ha,dayflower; [5],75%
same,pest or weed control at 16 g/ha,dayflower; [6],0%
same,pest or weed control at 31 g/ha,field bindweed; [2],20%
same,pest or weed control at 62 g/ha,field bindweed; [3],30%
same,pest or weed control at 125 g/ha,field bindweed; [4],30%
same,pest or weed control at 250 g/ha,field bindweed; [5],40%
same,pest or weed control at 16 g/ha,field bindweed; [6],10%
same,pest or weed control at 31 g/ha,sandbur; [2],0%
same,pest or weed control at 62 g/ha,sandbur; [3],0%
same,pest or weed control at 125 g/ha,sandbur; [4],10%
same,pest or weed control at 250 g/ha,sandbur; [5],20%
same,pest or weed control at 16 g/ha,sandbur; [6],0%
same,pest or weed control at 31 g/ha,[1]; [2],70%
same,pest or weed control at 62 g/ha,[1]; [3],80%
same,pest or weed control at 125 g/ha,[1]; [4],90%
same,pest or weed control at 250 g/ha,[1]; [5],95%
same,pest or weed control at 16 g/ha,[1]; [6],60%
same,pest or weed control at 31 g/ha,waterhemp; [2],80%
same,pest or weed control at 62 g/ha,waterhemp; [3],90%
same,pest or weed control at 125 g/ha,waterhemp; [4],95%
same,pest or weed control at 250 g/ha,waterhemp; [5],98%
same,pest or weed control at 16 g/ha,waterhemp; [6],70%
"FC(F)c1cnn(-c2ccccc2Oc2ncc(Cl)cn2)c1 [Compound 80, 5-chloro-2-[2-[4-(difluoromethyl)-1H-pyrazol-1-yl]phenoxy]pyrimidine]","Plant response rating, Ducksalad",ducksalad; 250 g ai/ha,50
same,"Plant response rating, Ducksalad",ducksalad; 500 g ai/ha,75
same,"Plant response rating, Ducksalad",ducksalad; 1000 g ai/ha,80
same,"Plant response rating, Ducksalad",ducksalad; 2000 g ai/ha,80
same,"Plant response rating, Rice",rice; 250 g ai/ha,0
same,"Plant response rating, Rice",rice; 500 g ai/ha,0
same,"Plant response rating, Rice",rice; 1000 g ai/ha,0
same,"Plant response rating, Rice",rice; 2000 g ai/ha,0
N#Cc1cccc(Oc2ncc(Cl)cn2)c1-n1cc(OC(F)F)cn1 [Compound 97],"Plant response rating, Ducksalad",ducksalad; 31 g ai/ha,0
same,"Plant response rating, Ducksalad",ducksalad; 62 g ai/ha,40
same,"Plant response rating, Ducksalad",ducksalad; 125 g ai/ha,75
same,"Plant response rating, Ducksalad",ducksalad; 250 g ai/ha,80
same,"Plant response rating, Rice",rice; 31 g ai/ha,0
same,"Plant response rating, Rice",rice; 62 g ai/ha,0
same,"Plant response rating, Rice",rice; 125 g ai/ha,0
same,"Plant response rating, Rice",rice; 250 g ai/ha,0
"Fc1cccc(Oc2ncc(Cl)cn2)c1-n1cc(C(F)F)nn1 [Compound 141, 5-chloro-2-[2-[4-(difluoromethyl)-1H-1,2,3-triazol-1-yl]-3-fluorophenoxy]pyrimidine]","Plant response rating, Ducksalad",ducksalad; 31 g ai/ha,65
same,"Plant response rating, Ducksalad",ducksalad; 62 g ai/ha,80
same,"Plant response rating, Ducksalad",ducksalad; 125 g ai/ha,95
same,"Plant response rating, Ducksalad",ducksalad; 250 g ai/ha,100
same,"Plant response rating, Rice",rice; 31 g ai/ha,0
same,"Plant response rating, Rice",rice; 62 g ai/ha,0
same,"Plant response rating, Rice",rice; 125 g ai/ha,40
same,"Plant response rating, Rice",rice; 250 g ai/ha,60
Fc1cccc(Oc2ncc(Cl)cn2)c1-n1cc(Cl)cn1 [Compound 177],"Plant response rating, Ducksalad",ducksalad; 31 g ai/ha,20
same,"Plant response rating, Ducksalad",ducksalad; 62 g ai/ha,60
same,"Plant response rating, Ducksalad",ducksalad; 125 g ai/ha,85
same,"Plant response rating, Ducksalad",ducksalad; 250 g ai/ha,95
same,"Plant response rating, Rice",rice; 31 g ai/ha,0
same,"Plant response rating, Rice",rice; 62 g ai/ha,0
same,"Plant response rating, Rice",rice; 125 g ai/ha,10
same,"Plant response rating, Rice",rice; 250 g ai/ha,10
FC(F)c1cnn(-c2c(Cl)cccc2Oc2ncc(Cl)cn2)c1 [Compound 192],"Plant response rating, Ducksalad",ducksalad; 31 g ai/ha,0
same,"Plant response rating, Ducksalad",ducksalad; 62 g ai/ha,0
same,"Plant response rating, Ducksalad",ducksalad; 125 g ai/ha,70
same,"Plant response rating, Ducksalad",ducksalad; 250 g ai/ha,75
same,"Plant response rating, Rice",rice; 31 g ai/ha,0
same,"Plant response rating, Rice",rice; 62 g ai/ha,0
same,"Plant response rating, Rice",rice; 125 g ai/ha,0
same,"Plant response rating, Rice",rice; 250 g ai/ha,0
